Results published in US20120083522A1, “MODULATION OF INFLAMMATORY RESPONSES BY FACTOR XI” (Isis Pharmaceuitcals, inc., priority 2009, published 2012).
In the oligonucleotide strings, read from the 5' end, every base follows the letter of its sugar. An asterisk marks phosphorothioate; unmarked linkages are phosphodiester. Other units and linkages are bracketed, terminal groups are in braces. A string of capitals states the bases alone. e = 2'-O-(2-methoxyethyl) (MOE); [5mC] = 5-methylcytosine; d = 2'-deoxy (DNA)

What was measured:
human Factor XI mRNA = assay: Antisense inhibition of human Factor XI in HepG2 cells, 75 nM, lipofectin (Example 1); format: cell-based; settings: HepG2, 75 nM, approximately 24 hours, gapmers targeted to SEQ ID NO: 1, relative to untreated control cells
Description: Antisense oligonucleotides targeted to a Factor XI nucleic acid were tested for their effects on Factor XI mRNA in vitro. Cultured HepG2 cells at a density of 10,000 cells per well were transfected using lipofectin reagent with 75 nM antisense oligonucleotide. After a treatment period of approximately 24 hours, RNA was isolated from the cells and Factor XI mRNA levels were measured by quantitative real-time PCR. Factor XI mRNA levels were adjusted according to total RNA content, as measured by RIBOGREEN®. Results are presented as percent inhibition of Factor XI, relative to untreated control cells.
The chimeric antisense oligonucleotides in Tables 1 and 2 were designed as 5-10-5 MOE gapmers. The gapmers are 20 nucleotides in length, wherein the central gap segment is comprised of 10 2′-deoxynucleotides and is flanked on both sides (in the 5′ and 3′ directions) by wings comprising 5 nucleotides each. Each nucleotide in the 5′ wing segment and each nucleotide in the 3′ wing segment has a 2′-MOE modification. The internucleoside linkages throughout each gapmer are phosphorothioate (P═S) linkages. All cytidine residues throughout each gapmer are 5-methylcytidines. “Target start site” indicates the 5′-most nucleotide to which the gapmer is targeted. “Target stop site” indicates the 3′-most nucleotide to which the gapmer is targeted. […]

[1] = Cynomolgus monkeys: body and organ weights (Example 30); format: in vivo; settings: day 55
Description: (§1) Groups, each consisting of two male and two female monkeys, were injected subcutaneously with 25 mg/kg of ISIS 416850, ISIS 449709, ISIS 445522, ISIS 449710, ISIS 449707, ISIS 449711, ISIS 449708, 416858 and ISIS 445531. Antisense oligonucleotide was administered to the monkeys at 25 mg/kg three times per week for week 1 and 25 mg/kg twice per week for weeks 2 to 8. A control group, consisting of two male and two female monkeys was injected subcutaneously with PBS according to the same dosing regimen. Body weights were taken 14 days and 7 days before the start of treatment and were then measured weekly throughout the treatment period. Blood samples were collected 14 days and 5 days before the start of treatment and subsequently several times during the dosing regimen for measurement of various hematologic factors. On day 55, the monkeys were euthanized by exsanguination while under deep anesthesia, and organs harvested for further analysis.
Organ weights were taken after the animals were euthanized on day 55, and livers, kidneys and spleens were harvested.

[2] = system: IL-1β, IL-6, IFN-γ, TNF-α, IL-8, MIP-1α, MCP-1, MIP-10, RANTES; assay: Cynomolgus monkeys: cytokine and chemokine assays (Example 30); format: in vivo
Description: as §1
Blood samples obtained from all monkey groups were sent to Pierce Biotechnology (Woburn, Mass.) for measurements of chemokine and cytokine levels. Levels of IL-1β, IL-6, IFN-γ, and TNF-α were measured using the respective primate antibodies and levels of IL-8, MIP-1α, MCP-1, MIP-10 and RANTES were measured using the respective cross-reacting human antibodies. Measurements were taken 14 days before the start of treatment and on day 55, when the monkeys were euthanized.

murine Factor XI mRNA [3] = assay: Colitis Study B: Factor XI mRNA in the liver; format: in vivo, Swiss Webb mice; settings: DSS-induced colitis, day 7, 20 mg/kg s.c. twice a week for 3 weeks, percent change compared to the PBS control
Description: (§2) In a first group of 8 Swiss Webb mice, 20 mg/kg of ISIS 404071 was injected subcutaneously twice a week for 3 weeks. In a second group of 8 Swiss Webb mice, 20 mg/kg of ISIS 404057 was subcutaneously injected twice a week for 3 weeks. In a third control group of 8 Swiss Webb mice, 20 mg/kg of ISISI 421208 was injected subcutaneously twice a week for 3 weeks. Two control groups of 8 mice each were injected with PBS twice a week for 3 weeks. After the oligonucleotide treatment, 4% DSS in water was administered ad libitum for 6 days to all the experimental groups and one PBS control group.
(§3) Mice in all groups were weighed at day 0 and daily after administration of DSS. Mice were sacrificed at the end of the study on day 7 after DSS was administered, their livers and colons were harvested for RNA analysis, and their body weights and colon lengths were measured.
RT-PCR analysis of Factor XI mRNA was performed. As presented in Table 27 and FIG. 10, antisense oligonucleotides targeting Factor XI achieved statistically significant dose-dependent reduction of murine Factor XI over the PBS control in the liver. All the measurements are normalized to cyclophilin.
All the results in Table 27 are expressed as percent change compared to the PBS control.

Factor XI mRNA = assay: Arthritis Study B: liver Factor XI mRNA; format: in vivo, DBA/1J mice; settings: FIG. 4B
Description: (§4) In a group of 20 DBA/1J mice, 20 mg/kg of ISIS 404071 were injected subcutaneously twice a week for ten weeks. In a second group of 20 DBA/1J mice, 20 mg/kg of ISIS 404057 were injected subcutaneously twice a week for ten weeks. In a third control group of 20 DBA/1J mice, 20 mg/kg of ISIS 421208 were injected subcutaneously twice a week for ten weeks. Two control groups of 20 mice each were injected with PBS twice a week for ten weeks.
(§5) Mice in all groups were examined daily after day 30 after the first collagen injection for the visual appearance of arthritis in peripheral joints. The results in Table 22 are expressed as percent change compared to the PBS control except for the liver and spleen weight.
The difference between the effective of the two Factor XI antisense oligonucleotides may be related to the relative effectiveness of each oligonucleotide in inhibiting Factor XI mRNA as shown in FIG. 4B.

murine Factor XI mRNA [4] = assay: In vivo antisense inhibition of murine Factor XI: liver RNA analysis (Example 10); settings: BALB/c mice, relative to PBS control
Description: Several antisense oligonucleotides targeted to murine Factor XI mRNA (GENBANK Accession No. NM_028066.1, incorporated herein as SEQ ID NO: 6) showing statistically significant dose-dependent inhibition from the in vitro study were evaluated in vivo. BALB/c mice were treated with ISIS 404057 ([…], target start site 487, incorporated herein as SEQ ID NO: 10) and ISIS 404071 ([…], target start site 869, incorporated herein as SEQ ID NO: 11).
BALB/c mice were injected with 5 mg/kg, 10 mg/kg, 25 mg/kg, or 50 mg/kg of ISIS 404057 or ISIS 404071 twice a week for 3 weeks. A control group of mice was injected with phosphate buffered saline (PBS) twice a week for 3 weeks. Mice were sacrificed 5 days after receiving the last dose. Whole liver was harvested for RNA analysis and plasma was collected for protein analysis.
RNA was extracted from liver tissue for real-time PCR analysis of Factor XI. […] Results are presented as percent inhibition of Factor XI, relative to control.

[5] = system: collagen-induced arthritis model; assay: Arthritis Study B: collagen-induced arthritis, clinical effects (Example 11); format: in vivo, DBA/1J mice
Description: The effect of inhibition of Factor XI and its role in fibrin accumulation in the joints leading to joint inflammation and rheumatoid arthritis was evaluated in a murine collagen-induced arthritis (CIA) model. […] Arthritis induced in mice administered collagen can be visually assessed and clinically scored as described by Marty et al. (J Clin Invest, 107:631-640, 2001) where 1 point is given for each swollen digit except the thumb (maximum, 4), 1 point is given for the tarsal or carpal joint, and 1 point is given for the metatarsal or metacarpal joint with a maximum score of […]. Each paw was graded individually, the cumulative clinical arthritic score per mouse reaching a maximum of 22 points
as §4
Two and a half weeks after the first oligonucleotide dose, type II bovine collagen in complete Freund's adjuvant was injected subcutaneously at the base of the tail in all the experimental groups and one PBS control group. A booster injection containing 100 μg collagen type II in incomplete Freund's adjuvant was injected subcutaneously at the base of the tail at a different injection site on day 21 after the first collagen injection in these groups.
as §5

[6] = system: DSS-induced colitis model; assay: Colitis Study B: body weight and colon length; format: in vivo, Swiss Webb mice; settings: for Body weight / Colon length: DSS-induced colitis, day 7, 20 mg/kg s.c. twice a week for 3 weeks, percent change compared to the PBS control
Description: as §2, §3

[7] = system: OVA/alum-induced asthma model; assay: OVA-induced asthma model: mucus production (Example 13); format: in vivo, BALB/c mice; settings: BALB/c mice, 50 mg/kg s.c. twice a week for 4 weeks, PAS stain of lung sections
Description: (§6) The mice were divided into four treatment groups of 5 mice each. One group received subcutaneous injections of ISIS 404071 at a dose of 50 mg/kg twice a week for 4 weeks. One group of mice received subcutaneous injections of control oligonucleotide, ISIS 421208, which is a mismatch oligonucleotide sequence of ISIS 404071, at a dose of 50 mg/kg twice a week for 4 weeks. Two groups of mice received subcutaneous injections of PBS twice a week for 4 weeks. One PBS group remained untreated and served as the control group. The second PBS group and both the oligonucleotide treated groups were injected with OVA/alum on days 0 and 14 and nebulized with OVA in PBS on days 24, 25, and 26. The first OVA application served to sensitize the mice against OVA while the second was a challenge application to provoke an asthmatic reaction. Two days following the final dose, the mice were euthanized, bronchial lavage (BAL) was collected and analyses done.
Lung sections were stained with periodic acid […] (PAS) base stain that stains mucus, which is produced during asthma attacks (Rogers, D. F. Curr. Opin Pharmacol. 2004. 4: 241-250). The number of airways containing mucus as a percentage of the total airways in the lungs was evaluated.

[8] = system: OVA/alum-induced asthma model; assay: OVA-induced asthma model: BAL eosinophil recruitment (Example 13); format: in vivo, BALB/c mice; settings: percentage of total cells in BAL, 50 mg/kg s.c. twice a week for 4 weeks
Description: The effect of antisense oligonucleotide inhibition of Factor XI and its role in ameliorating asthma was evaluated in an OVA/alum-induced asthma model. Administration of ovalbumin to animals is a well known method to induce […] and has been previously described by Henderson et al. (J. Exp. Med., 1996, 184: 1483-1494).
as §6
Bronchial asthma, even in its mild form, is characterized by local infiltration and activation of inflammatory and immunoeffector cells, including T lymphocytes, macrophages, eosinophils, and mast cells (Smith D. L. et al., Am. Rev. Respir. Dis. 1993. 148: 523-532). The effect of treatment with ISIS 404071 on bronchoalveolar lavage (BAL) eosinophil recruitment was assessed. BAL cells were stained with hemotoxylin and eosin (H&E). The results are presented in Table 49 as a percentage of total cells in BAL.

[9] = Arthritis Study B: liver and spleen weight, ALT, AST; format: in vivo; settings: collagen-treated DBA/1J mice, 20 mg/kg s.c. twice a week for ten weeks
Description: as §4, §5

[10] = day −14 (before start of treatment)
[11] = DBA/1J mice, 20 mg/kg s.c. twice a week for ten weeks, end of study

412213 (antisense eA*eA*eA*e[5mC]*eA*dA*dG*d[5mC]*dA*dA*d[5mC]*d[5mC]*dG*dG*dG*eA*eT*eG*eA*eT) [compound 412213]
% inhibition (human Factor XI mRNA): 71%

ISIS 449711: microwalk gapmer of Table 53 (antisense eA*e[5mC]*dA*dG*dT*dT*dT*d[5mC]*dT*dG*dG*d[5mC]*eA*eG)
spleen weight (in words) [1]: caused increase in spleen weight | IL-1β level ([2]; 25 mg/kg s.c., day 55): 146 pg/mL | MIP-1β level ([2]; 25 mg/kg s.c., day 55): 91 pg/mL | IL-1β level [2, 10]: 79 pg/mL | MIP-1β level [2, 10]: 24 pg/mL

TCCTGGCATTCTCGAGCATT (eT*e[5mC]*e[5mC]*eT*eG*dG*d[5mC]*dA*dT*dT*d[5mC]*dT*d[5mC]*dG*dA*eG*e[5mC]*eA*eT*eT) [ISIS 404057, 5-10-5 MOE gapmer targeting murine Factor XI, target start site 487]
Liver Factor XI mRNA (murine Factor XI mRNA [3]): −50% | Factor XI inhibition in liver (in words) (Factor XI mRNA): lack of Factor XI inhibition | % inhibition (murine Factor XI mRNA [4]; 5 mg/kg twice a week for 3 weeks): 40% | % inhibition (murine Factor XI mRNA [4]; 10 mg/kg twice a week for 3 weeks): 64% | % inhibition (murine Factor XI mRNA [4]; 25 mg/kg twice a week for 3 weeks): 85% | % inhibition (murine Factor XI mRNA [4]; 50 mg/kg twice a week for 3 weeks): 95% | amount of arthritis assessed (in words) ([5]; Arthritis Study B, 20 mg/kg twice a week for ten weeks, compared to untreated mice): did not affect the amount of arthritis | body weight (in words) ([6]; Colitis Study B, FIG. 9): did not have any significant change in body weight | Body weight [6]: −16% | Colon length [6]: −11%

TCGGAAGC GACTCTTATATG (eT*e[5mC]*eG*eG*eA*dA*dG*d[5mC]*dG*dA*d[5mC]*dT*d[5mC]*dT*dT*eA*eT*eA*eT*eG) [ISIS 421208, control oligonucleotide for ISIS 404071 with 8 mismatches, 5-10-5 MOE gapmer, reference compound]
Liver Factor XI mRNA (murine Factor XI mRNA [3]): +25% | Mucus production, % airways containing mucus [7]: 49 % airways | Eosinophils [8]: 51% | Liver ALT [9]: 70.06 | Liver AST [9]: 165.12 | Liver Weight as a % of Body Weight [9]: 6.14% | Spleen Weight as a % of Body Weight [9]: 0.718 % of Body Weight | % of CIA [5, 11]: 81% | % of paws affected [5, 11]: 45% | Average no. of paws affected [5, 11]: 1.7 | Clinical severity of CIA [5, 11]: 7.75 | Body weight [6]: −10% | Colon length [6]: −33%
